Measured values from PubChem BioAssay AID1845210 (Molecular Pharmacology Branch, DTP, NCI, 2023).
Several values for one entry are separate records, joined by “and”; a condition that tells them apart may be missing. Equal entries are not always repeated.

System: NCI-H226 complex tumor spheroids, viability
Experiment: Anticancer human tumor NCI-H226 cell line growth inhibition;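 also: spheroids exposed to compound for 7 days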;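 as to viability, T/C: 100% = DMSO vehicle control viability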
Conditions: for viability, T/C: stronger effect = lower value; active = viability on the fitted dose curve at most 10% of control; inactive = the rest
Procedure, shortened: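 Single agents and combinations were tested on spheroids built from tumor cells plus HUVEC and hMSC, at half-log dilutions starting at or near clinical Cmax, else 10 microM; final DMSO 0.25% (v/v).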

[1] = curve of first compound, second compound 0.003 µM
[2] = second compound 0.003 µM, first compound 0.00949 µM
[3] = second compound 0.003 µM, first compound 0.03 µM
[4] = second compound 0.003 µM, first compound 0.0949 µM
[5] = second compound 0.003 µM, first compound 0.3 µM
[6] = second compound 0.003 µM, first compound 0.949 µM
[7] = second compound 0.003 µM, first compound 3 µM
[8] = curve of first compound, second compound 30 pM
[9] = curve of first compound, second compound 94.9 pM
[10] = curve of first compound, second compound 0.0003 µM
[11] = curve of first compound, second compound 0.000949 µM
[12] = second compound 30 pM, first compound 0.0316 µM
[13] = second compound 30 pM, first compound 0.1 µM
[14] = second compound 30 pM, first compound 0.316 µM
[15] = second compound 30 pM, first compound 1 µM
[16] = second compound 30 pM, first compound 3.16 µM
[17] = second compound 30 pM, first compound 10 µM
[18] = second compound 94.9 pM, first compound 0.0316 µM
[19] = second compound 94.9 pM, first compound 0.1 µM
[20] = second compound 94.9 pM, first compound 0.316 µM
[21] = second compound 94.9 pM, first compound 1 µM
[22] = second compound 94.9 pM, first compound 3.16 µM
[23] = second compound 94.9 pM, first compound 10 µM
[24] = second compound 0.0003 µM, first compound 0.0316 µM
[25] = second compound 0.0003 µM, first compound 0.1 µM
[26] = second compound 0.0003 µM, first compound 0.316 µM
[27] = second compound 0.0003 µM, first compound 1 µM
[28] = second compound 0.0003 µM, first compound 3.16 µM
[29] = second compound 0.0003 µM, first compound 10 µM
[30] = second compound 0.000949 µM, first compound 0.0316 µM
[31] = second compound 0.000949 µM, first compound 0.1 µM
[32] = second compound 0.000949 µM, first compound 0.316 µM
[33] = second compound 0.000949 µM, first compound 1 µM
[34] = second compound 0.000949 µM, first compound 3.16 µM
[35] = second compound 0.000949 µM, first compound 10 µM
[36] = second compound 0.003 µM, first compound 0.0316 µM
[37] = second compound 0.003 µM, first compound 0.1 µM
[38] = second compound 0.003 µM, first compound 0.316 µM
[39] = second compound 0.003 µM, first compound 1 µM
[40] = second compound 0.003 µM, first compound 3.16 µM
[41] = second compound 0.003 µM, first compound 10 µM

Cc1cc(C)c(CNC(=O)c2cc(-c3ccc(CN4CCOCC4)cc3)cc3c2cnn3C2CCCC2)c(=O)[nH]1
inactive: viability, T/C (compound 0.0316 µM) 100% (2×) and 94.5% | viability, T/C (compound 0.1 µM) 102% and 112% and 103% | viability, T/C (compound 0.316 µM) 99% and 107% and 112% | viability, T/C (compound 1 µM) 83.4% and 110% and 97.2% | viability, T/C (compound 3.16 µM) 91% and 115% and 98.1% | viability, T/C (compound 10 µM) 91.5% and 118% and 100%
> 10000 nM: IC50 (curve of compound)

Cc1sc2c(c1C)C(c1ccc(Cl)cc1)=NC(CC(=O)Nc1ccc(O)cc1)c1nnc(C)n1-2 (configuration not stated) + CC[C@@]1(O)C(=O)OCc2c1cc1n(c2=O)Cc2cc3c(CN(C)C)c(O)ccc3nc2-1
< 9.49 nM: IC50 (curve of first compound, second compound 0.3 µM)
94 nM: IC50 (curve of first compound, second compound 0.0949 µM)
1460 nM: IC50 [1]
1290 nM: IC50 (curve of first compound, second compound 0.00949 µM)
inactive: viability, T/C [2] 71.9% | viability, T/C [3] 68.5% | viability, T/C [4] 65.8% | viability, T/C [5] 60.2% | viability, T/C [6] 54% | viability, T/C [7] 43.9% | viability, T/C (second compound 0.00949 µM, first compound 0.00949 µM) 69.9% | viability, T/C (second compound 0.00949 µM, first compound 0.03 µM) 62% | viability, T/C (second compound 0.00949 µM, first compound 0.0949 µM) 68.9% | viability, T/C (second compound 0.00949 µM, first compound 0.3 µM) 61% | viability, T/C (second compound 0.00949 µM, first compound 0.949 µM) 50% | viability, T/C (second compound 0.00949 µM, first compound 3 µM) 43% | viability, T/C (second compound 0.03 µM, first compound 0.00949 µM) 63.9% | viability, T/C (second compound 0.03 µM, first compound 0.03 µM) 57.9% | viability, T/C (second compound 0.03 µM, first compound 0.0949 µM) 53.9% | viability, T/C (second compound 0.03 µM, first compound 0.3 µM) 54.2% | viability, T/C (second compound 0.03 µM, first compound 0.949 µM) 45.4% | viability, T/C (second compound 0.03 µM, first compound 3 µM) 44.6% | viability, T/C (second compound 0.0949 µM, first compound 0.00949 µM) 71.3% | viability, T/C (second compound 0.0949 µM, first compound 0.03 µM) 52.9% | viability, T/C (second compound 0.0949 µM, first compound 0.0949 µM) 50.5% | viability, T/C (second compound 0.0949 µM, first compound 0.3 µM) 54.9% | viability, T/C (second compound 0.0949 µM, first compound 0.949 µM) 43% | viability, T/C (second compound 0.0949 µM, first compound 3 µM) 41.6% | viability, T/C (second compound 0.3 µM, first compound 0.00949 µM) 50.3% | viability, T/C (second compound 0.3 µM, first compound 0.03 µM) 45.8% | viability, T/C (second compound 0.3 µM, first compound 0.0949 µM) 43.6% | viability, T/C (second compound 0.3 µM, first compound 0.3 µM) 44.4% | viability, T/C (second compound 0.3 µM, first compound 0.949 µM) 37% | viability, T/C (second compound 0.3 µM, first compound 3 µM) 27.1%
431 nM: IC50 (curve of first compound, second compound 0.03 µM)

Cc1cc(C)c(CNC(=O)c2cc(-c3ccc(CN4CCOCC4)cc3)cc3c2cnn3C2CCCC2)c(=O)[nH]1 + COc1cc2c(cc1O)CCNC21CSC2c3c(OC(C)=O)c(C)c4c(c3C(COC1=O)N1C(O)C3Cc5cc(C)c(OC)c(O)c5C(C21)N3C)OCO4
> 10000 nM: IC50 [8] | IC50 [9] | IC50 [10] | IC50 [11]
inactive: viability, T/C [12] 87.5% | viability, T/C [13] 106% | viability, T/C [14] 96.8% | viability, T/C [15] 93.8% | viability, T/C [16] 86.7% | viability, T/C [17] 95.8% | viability, T/C [18] 98.3% | viability, T/C [19] 100% | viability, T/C [20] 101% | viability, T/C [21] 96.6% | viability, T/C [22] 83.1% | viability, T/C [23] 91.8% | viability, T/C [24] 105% | viability, T/C [25] 115% | viability, T/C [26] 109% | viability, T/C [27] 110% | viability, T/C [28] 110% | viability, T/C [29] 93.3% | viability, T/C [30] 108% | viability, T/C [31] 104% | viability, T/C [32] 113% | viability, T/C [33] 103% | viability, T/C [34] 92.3% | viability, T/C [35] 97.8%
< 31.6 nM: IC50 [1]
active: viability, T/C [36] 3.24% | viability, T/C [37] 1.05% | viability, T/C [38] 2.46% | viability, T/C [39] 0.49% | viability, T/C [40] 0.37% | viability, T/C [41] 0.44%

COc1cc(C)[nH]c(=O)c1CN1CCc2c(Cl)cc(C(OC)C3COC3)c(Cl)c2C1=O (configuration not stated) + COc1cc2c(cc1O)CCNC21CSC2c3c(OC(C)=O)c(C)c4c(c3C(COC1=O)N1C(O)C3Cc5cc(C)c(OC)c(O)c5C(C21)N3C)OCO4
active: viability, T/C [36] 3.38% | viability, T/C [37] 1.73% | viability, T/C [38] 1.1% | viability, T/C [39] 1.4% | viability, T/C [40] 1.04% | viability, T/C [41] 0.69%
< 31.6 nM: IC50 [1]
inactive: viability, T/C [12] 115% | viability, T/C [13] 131% | viability, T/C [14] 128% | viability, T/C [15] 115% | viability, T/C [16] 126% | viability, T/C [17] 129% | viability, T/C [18] 103% | viability, T/C [19] 113% | viability, T/C [20] 125% | viability, T/C [21] 119% | viability, T/C [22] 127% | viability, T/C [23] 114% | viability, T/C [24] 133% | viability, T/C [25] 133% | viability, T/C [26] 130% | viability, T/C [27] 148% | viability, T/C [28] 140% | viability, T/C [29] 136% | viability, T/C [30] 103% | viability, T/C [31] 119% | viability, T/C [32] 111% | viability, T/C [33] 115% | viability, T/C [34] 114% | viability, T/C [35] 109%
> 10000 nM: IC50 [8] | IC50 [9] | IC50 [10] | IC50 [11]

Cc1sc2c(c1C)C(c1ccc(Cl)cc1)=NC(CC(=O)Nc1ccc(O)cc1)c1nnc(C)n1-2 (configuration not stated) + COc1cc2c(cc1O)CCNC21CSC2c3c(OC(C)=O)c(C)c4c(c3C(COC1=O)N1C(O)C3Cc5cc(C)c(OC)c(O)c5C(C21)N3C)OCO4
inactive: viability, T/C (second compound 30 pM, first compound 0.00949 µM) 97% | viability, T/C (second compound 30 pM, first compound 0.03 µM) 93.1% | viability, T/C (second compound 30 pM, first compound 0.0949 µM) 84% | viability, T/C (second compound 30 pM, first compound 0.3 µM) 84.9% | viability, T/C (second compound 30 pM, first compound 0.949 µM) 68% | viability, T/C (second compound 30 pM, first compound 3 µM) 64.8% | viability, T/C (second compound 94.9 pM, first compound 0.00949 µM) 105% | viability, T/C (second compound 94.9 pM, first compound 0.03 µM) 91.8% | viability, T/C (second compound 94.9 pM, first compound 0.0949 µM) 87.1% | viability, T/C (second compound 94.9 pM, first compound 0.3 µM) 77.6% | viability, T/C (second compound 94.9 pM, first compound 0.949 µM) 73.9% | viability, T/C (second compound 94.9 pM, first compound 3 µM) 66% | viability, T/C (second compound 0.0003 µM, first compound 0.00949 µM) 101% | viability, T/C (second compound 0.0003 µM, first compound 0.03 µM) 84.7% | viability, T/C (second compound 0.0003 µM, first compound 0.0949 µM) 75.2% | viability, T/C (second compound 0.0003 µM, first compound 0.3 µM) 75.9% | viability, T/C (second compound 0.0003 µM, first compound 0.949 µM) 72.6% | viability, T/C (second compound 0.0003 µM, first compound 3 µM) 48.7% | viability, T/C (second compound 0.000949 µM, first compound 0.00949 µM) 138% | viability, T/C (second compound 0.000949 µM, first compound 0.03 µM) 78.6% | viability, T/C (second compound 0.000949 µM, first compound 0.0949 µM) 68.2% | viability, T/C (second compound 0.000949 µM, first compound 0.3 µM) 67.1% | viability, T/C (second compound 0.000949 µM, first compound 0.949 µM) 19.7%
257 nM: IC50 [11]
> 3000 nM: IC50 [8] | IC50 [9] | IC50 [10]
< 9.49 nM: IC50 [1]
active: viability, T/C (second compound 0.000949 µM, first compound 3 µM) 7.53% | viability, T/C [2] 2.09% | viability, T/C [3] 0.99% | viability, T/C [4] 0.74% | viability, T/C [5] 0.28% | viability, T/C [6] 0.28% | viability, T/C [7] 0.51%
